Experimental data reported in PMC4429810, “Heat shock protein 90 inhibitors repurposed against Entamoeba histolytica” (Frontiers in Microbiology, 2015).
Structures can show the parent of a compound that is named as a salt.

Each compound was assayed against T1, PfHsp90 ATP-binding domain (Plasmodium falciparum, UniProt Q8IC05) (assay: bis-ANS fluorescence displacement screen). Settings: bis-ANS 5 μM, protein 1 μM, Tris pH 7.5, 10 mM MgCl2, 50 mM KCl, 37°C; competition with bis-ANS at ATP-binding domain.
T1 construct: gene PF3D7_0708400; from genomic DNA in pET28b, E. coli BL21(DE3); His tag said to be cut by TEV; pocket residues A38, N92, R98
T1 sequence (Q8IC05 1-211): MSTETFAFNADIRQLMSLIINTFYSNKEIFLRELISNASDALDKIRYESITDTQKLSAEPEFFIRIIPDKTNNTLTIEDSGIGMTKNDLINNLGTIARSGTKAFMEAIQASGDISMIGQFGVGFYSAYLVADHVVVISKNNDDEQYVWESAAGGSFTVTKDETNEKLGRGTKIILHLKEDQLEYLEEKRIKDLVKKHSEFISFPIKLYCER

For CO[C@H]1/C=C/O[C@@]2(C)Oc3c(C)c(O)c4c(c3C2=O)C2=NC3(CCN(CC(C)C)CC3)NC2=C(NC(=O)/C(C)=C\C=C\[C@H](C)[C@H](O)[C@@H](C)[C@@H](O)[C@@H](C)[C@H](OC(C)=O)[C@@H]1C)C4=O [Rifabutin], the “bis-ANS fluorescence displacement screen” value was “rifabutin showed the highest inhibition against PfHsp90”.

Each compound was assayed against T2, EhHsp90 ATP-binding domain (Entamoeba histolytica, UniProt C4MBP1) (assay: bis-ANS fluorescence displacement screen). Settings: read-out: Percent inhibition of fluorescence in protein screen at 2.5 μM (%).
T2 construct: gene EHI_102270; cloned from genomic DNA in pET28a, E. coli BL21(DE3); His tag said to be cut by TEV; pocket residues C49, C103, R109
Text: bis-ANS fluorescence displacement screen on EhHsp90 ATP-binding domain

T2 sequence (C4MBP1 1-215): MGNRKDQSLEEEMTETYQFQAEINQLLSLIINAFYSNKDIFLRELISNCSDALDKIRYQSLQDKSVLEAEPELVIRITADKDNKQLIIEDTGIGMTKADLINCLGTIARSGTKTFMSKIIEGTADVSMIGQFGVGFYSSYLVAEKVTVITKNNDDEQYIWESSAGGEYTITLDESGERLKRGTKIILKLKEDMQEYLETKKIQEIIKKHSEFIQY

Compared with CCN(CC)Cc1cc(Nc2ccnc3cc(Cl)ccc23)ccc1O [Amodiaquindihydrochloride dihydrate], CCN(CC)CCNc1ccc(CO)c2sc3ccccc3c(=O)c12 [Hycanthone] is higher in inhibition at 2.5 µM: 82.1% for the first, 90.9% for the second.

First: COc1ccc2cc3[n+](cc2c1OC)CCc1cc2c(cc1-3)OCO2 [Berberine chloride]
Second: C[n+]1cc2c3c(ccc2c2ccc4cc5c(cc4c21)OCO5)OCO3 [Sanguinarine sulfate]
The inhibition at 2.5 µM of the first is higher: 78.3% for the first, 71.3% for the second.

C=CC1=C(C)/C(=C/c2[nH]c(Cc3[nH]c(/C=C4\NC(=O)C(C)=C4C=C)c(C)c3CCC(=O)O)c(CCC(=O)O)c2C)NC1=O [Bilirubin] and CO[C@H]1/C=C/O[C@@]2(C)Oc3c(C)c(O)c4c(c3C2=O)C2=NC3(CCN(CC(C)C)CC3)NC2=C(NC(=O)/C(C)=C\C=C\[C@H](C)[C@H](O)[C@@H](C)[C@@H](O)[C@@H](C)[C@H](OC(C)=O)[C@@H]1C)C4=O [Rifabutin] are the same in inhibition at 2.5 µM: 73.7% for the first, 73.7% for the second.

Compared with CC(C)/N=c1\cc2n(-c3ccc(Cl)cc3)c3ccccc3nc-2cc1Nc1ccc(Cl)cc1 [Clofazimine], CN(C)c1ccc(C(=C2C=CC(=[N+](C)C)C=C2)c2ccccc2)cc1 [WB 64 (Malachite Green)] is higher in inhibition at 2.5 µM: 73.7% for the first, 84.9% for the second.

Going from COc1cccc2c1C(=O)c1c(O)c3c(c(O)c1C2=O)C[C@@](O)(C(C)=O)C[C@@H]3O[C@H]1C[C@H](N)[C@H](O)[C@H](C)O1 [Daunorubicin hydrochloride] to CC[C@@]1(O)C[C@H](O[C@H]2C[C@H](N(C)C)[C@H](O)[C@H](C)O2)c2c(cc3c(c2O)C(=O)c2c(O)ccc(O)c2C3=O)[C@H]1C(=O)OC [Rutilantin], the inhibition at 2.5 µM falls from 83.2% to 77.1%.

Going from O=C1Nc2ccc(I)cc2/C1=C/c1cc(Br)c(O)c(Br)c1 [GW5074] to O=C1c2ccccc2C(=O)c2c(O)c(O)cc(O)c21 [Purpurin], the inhibition at 2.5 µM rises from 70.5% to 75%.

Compared with CN(C)c1ccc(C(=C2C=CC(=[N+](C)C)C=C2)c2ccc(N(C)C)cc2)cc1 [Gentian Violet], N=C1C=CC(=C(c2ccc(N)cc2)c2ccc(N)cc2)C=C1 [Pararosaniline pamoate] is lower in inhibition at 2.5 µM: 99.3% for the first, 99% for the second.

Going from O=C1c2c(O)ccc(O)c2C(=O)c2c(NCCNCCO)ccc(NCCNCCO)c21 [Mitoxantronedihydrochloride] to N#C/C(=C\c1ccc(O)c(O)c1)C(=O)c1ccc(O)c(O)c1 [Tyrphostin AG 538], the inhibition at 2.5 µM falls from 95.3% to 75%.
